Consider four compounds from BigSolDB 2.1.

For the data set the following is noted: 298.15 K.

What is called solubility (mole fraction) is solubility expressed as the solute's share of all molecules. In turn, `OC[C@H]1O[C@@H](Oc2cc(O)cc(/C=C/c3ccc(O)cc3)c2)[C@H](O)[C@@H](O)[C@@H]1O` came in with a solubility (mole fraction) (in ethyl acetate) of 6.73e-05, a solubility (mole fraction) (in methanol) of 0.0086, a solubility (mole fraction) (in n-butyl acetate) of 1.96e-05 and a solubility (mole fraction) (in n-propyl acetate) of 3.37e-05.
For the compound `Oc1ccc(/C=C/c2cc(O)cc(O)c2)cc1`, the solubility (mole fraction) runs as follows: (in ethyl acetate) 0.00895; (in methanol) 0.0189; (in n-butyl acetate) 0.00463; (in n-propyl acetate) 0.00596.
For `O=c1c(O)c(-c2ccc(O)cc2)oc2cc(O)cc(O)c12`, in that order: 0.00452, 0.00324, 0.0024 and 0.00275.
The corresponding values for `O=c1c(O)c(-c2ccc(O)c(O)c2)oc2cc(O)cc(O)c12` are 0.00223, 0.00144, 0.00184 and 0.0019.
